# Experimental data from patent US11390604B2 (Hoffmann-La Roche Inc., priority 2019, dated 2022).
# Counter-ions that a name gives are not always drawn.
# Tested on: Acinetobacter baumannii ATCC 17961
# Assay: Antimicrobial susceptibility testing: 90% growth inhibitory concentration (IC90) determination
# Type: cell-based
# Conditions: ATCC17961, Acinetobacter baumannii ATCC 17961, Iso-Sensitest broth, read-out: ATCC 17961 IC90
# How it was run: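 Growth was followed kinetically by OD600 at 20-min intervals for 16 h at 35±2 °C, with ~5×10^5 CFU/ml in Iso-Sensitest broth. Compounds were tested as twofold dilutions (e.g. 50–0.097 μM final). The concentration giving 90% inhibition of log-phase growth was reported.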
row,Compound,IC90
1,"C#CCn1cc(-c2cnc(C(=O)Nc3ccc(C(=O)NC[C@@H]4CNC[C@@H]4O)c(Cl)c3)n2C)c(C(F)(F)F)n1 [Example 33, N-(3-chloro-4-((((3S,4R)-4-hydroxypyrrolidin-3-yl)methyl)carbamoyl)phenyl)-1-methyl-5-(1-(prop-2-yn-1-yl)-3-(trifluoromethyl)-1H-pyrazol-4-yl)-1H-imidazole-2-carboxamide hydrochloride]",925 nM
2,"C#CCn1cc(-c2cnc(C(=O)Nc3ccc(C(=O)N4CCN(C(=O)OC(C)(C)C)CC4)c(Cl)c3)n2C)c(C(F)(F)F)n1 [Example 34, tert-butyl 4-[2-chloro-4-[[1-methyl-5-[1-prop-2-ynyl-3-(trifluoromethyl)pyrazol-4-yl]imidazole-2-carbonyl]amino]benzoyl]piperazine-1-carboxylate]",1060 nM
3,"C#CCn1cc(-c2cnc(C(=O)Nc3ccc(C(=O)N4CCN(C(=O)[C@@H]5C[C@@H](O)CN5)CC4)c(Cl)c3)n2C)c(C(F)(F)F)n1 [Example 36, N-[3-Chloro-4-[4-[(2S,4R)-4-hydroxypyrrolidine-2-carbonyl]piperazine-1-carbonyl]phenyl]-1-methyl-5-[1-prop-2-ynyl-3-(trifluoromethyl)pyrazol-4-yl]imidazole-2-carboxamide hydrochloride]",286 nM
4,"C#CCn1cc(-c2cnc(C(=O)Nc3ccc(C(=O)N4CCN(C(=O)[C@H]5CCNC5)CC4)c(Cl)c3)n2C)c(C(F)(F)F)n1 [Example 37, N-[3-chloro-4-[4-[(3S)-pyrrolidine-3-carbonyl]piperazine-1-carbonyl]phenyl]-1-methyl-5-[1-prop-2-ynyl-3-(trifluoromethyl)pyrazol-4-yl]imidazole-2-carboxamide hydrochloride]",233 nM
5,"C#CCn1cc(-c2cnc(C(=O)Nc3ccc(C(=O)N4CCN(C(=O)[C@H]5CCCN5)CC4)c(Cl)c3)n2C)c(C(F)(F)F)n1 [Example 38, N-[3-chloro-4-[4-[(2R)-pyrrolidine-2-carbonyl]piperazine-1-carbonyl]phenyl]-1-methyl-5-[1-prop-2-ynyl-3-(trifluoromethyl)pyrazol-4-yl]imidazole-2-carboxamide hydrochloride]",275 nM
6,"C#CCn1cc(-c2cnc(C(=O)Nc3ccc(C(=O)N4CCN(C(=O)C5(O)CCNCC5)CC4)c(Cl)c3)n2C)c(C(F)(F)F)n1 [Example 39, N-[3-chloro-4-[4-(4-hydroxypiperidine-4-carbonyl)piperazine-1-carbonyl]phenyl]-1-methyl-5-[1-prop-2-ynyl-3-(trifluoromethyl)pyrazol-4-yl]imidazole-2-carboxamide hydrochloride]",257 nM
7,"C#CCn1cc(-c2cnc(C(=O)Nc3ccc(C(=O)N4CCN(C(=O)[C@H]5CCNC[C@H]5O)CC4)c(Cl)c3)n2C)c(C(F)(F)F)n1 [Example 40, N-(3-chloro-4-(4-((3S,4S)-3-hydroxypiperidine-4-carbonyl)piperazine-1-carbonyl)phenyl)-1-methyl-5-(1-(prop-2-yn-1-yl)-3-(trifluoromethyl)-1H-pyrazol-4-yl)-1H-imidazole-2-carboxamide hydrochloride]",241 nM
8,"Cc1cc(NC(=O)c2ncc(-c3c[nH]nc3C(F)(F)F)n2C)ccc1C(=O)NCCCCCCN [Example 49, N-(4-((6-aminohexyl)carbamoyl)-3-methylphenyl)-1-methyl-5-(3-(trifluoromethyl)-1H-pyrazol-4-yl)-1H-imidazole-2-carboxamide hydrochloride]",2830 nM
9,"Cc1cc(NC(=O)c2ncc(-c3c[nH]nc3C(F)(F)F)n2C)ccc1C(=O)NCCCCCN [Example 50, N-(4-((5-aminopentyl)carbamoyl)-3-methylphenyl)-1-methyl-5-(3-(trifluoromethyl)-1H-pyrazol-4-yl)-1H-imidazole-2-carboxamide hydrochloride]",4680 nM
10,"C#CCn1cc(-c2cnc(C(=O)Nc3ccc(C(=O)N4CCN(C(=O)NC5CNC5)CC4)c(Cl)c3)n2C)c(C(F)(F)F)n1 [Example 51, N-(Azetidin-3-yl)-4-(2-chloro-4-(1-methyl-5-(1-(prop-2-yn-1-yl)-3-(trifluoromethyl)-1H-pyrazol-4-yl)-1H-imidazole-2-carboxamido)benzoyl)piperazine-1-carboxamide Hydrochloride]",122 nM
11,"C#CCn1cc(-c2cnc(C(=O)Nc3ccc(C(=O)N4CCN(C(=O)NCC5(O)CNC5)CC4)c(Cl)c3)n2C)c(C(F)(F)F)n1 [Example 52, 4-(2-chloro-4-(1-methyl-5-(1-(prop-2-yn-1-yl)-3-(trifluoromethyl)-1H-pyrazol-4-yl)-1H-imidazole-2-carboxamido)benzoyl)-N-((3-hydroxyazetidin-3-yl)methyl)piperazine-1-carboxamide hydrochloride]",192 nM
12,"C#CCn1cc(-c2cnc(C(=O)Nc3ccc(C(=O)N4CCN(C(=O)N[C@H]5CCNC5)CC4)c(Cl)c3)n2C)c(C(F)(F)F)n1 [Example 53, (S)-4-(2-chloro-4-(1-methyl-5-[1-(prop-2-yn-1-yl)-3-(trifluoromethyl)-1H-pyrazol-4-yl)-1H-imidazole-2-carboxamido)benzoyl)-N-(pyrrolidin-3-yl)piperazine-1-carboxamide hydrochloride]",161 nM
13,"Cn1c(-c2cn(C3CC3)nc2C(F)(F)F)cnc1C(=O)Nc1ccc(C(=O)N2CCN(C(=O)C3CCNCC3)CC2)c(Cl)c1 [Example 54, N-(3-Chloro-4-(4-(piperidine-4-carbonyl)piperazine-1-carbonyl)phenyl)-5-(1-cyclopropyl-3-(trifluoromethyl)-1H-pyrazol-4-yl)-1-methyl-1H-imidazole-2-carboxamide hydrochloride]",335 nM
14,"Cn1cc(-c2cnc(C(=O)Nc3ccc(C(=O)N4CCN(C(=O)[C@@H]5C[C@@H](O)CN5)CC4)c(Cl)c3)n2C)c(C(F)(F)F)n1 [Example 55, N-[3-Chloro-4-[4-[(2S,4R)-4-hydroxypyrrolidine-2-carbonyl]piperazine-1-carbonyl]phenyl]-1-methyl-5-[1-methyl-3-(trifluoromethyl)pyrazol-4-yl]imidazole-2-carboxamide]",1940 nM
15,"Cn1cc(-c2cnc(C(=O)Nc3ccc(C(=O)N4CCN(C(=O)C5(O)CCNCC5)CC4)c(Cl)c3)n2C)c(C(F)(F)F)n1 [Example 56, N-[3-Chloro-4-[4-(4-hydroxypiperidine-4-carbonyl)piperazine-1-carbonyl]phenyl]-1-methyl-5-[1-methyl-3-(trifluoromethyl)pyrazol-4-yl]imidazole-2-carboxamide 2,2,2-trifluoroacetate]",1510 nM

# Next, values leading:
row,IC90,Compound
1,801 nM,"C#CCn1cc(-c2cnc(C(=O)Nc3ccc(C(N)=O)c(Cl)c3)n2C)c(C(F)(F)F)n1 [Example 41, N-(4-Carbamoyl-3-chlorophenyl)-1-methyl-5-(1-(prop-2-yn-1-yl)-3-(trifluoromethyl)-11-pyrazol-4-yl)-1H-imidazole-2-carboxamide]"
2,241 nM,"C#CCn1cc(-c2cnc(C(=O)Nc3ccc(C(=O)N(C)C)c(Cl)c3)n2C)c(C(F)(F)F)n1 [Example 42, N-(3-chloro-4-(dimethylcarbamoyl)phenyl)-1-methyl-5-(1-(prop-2-yn-1-yl)-3-(trifluoromethyl)-1H-pyrazol-4-yl)-1H-imidazole-2-carboxamide]"
3,478 nM,"C#CCn1cc(-c2cnc(C(=O)Nc3ccc(C(=O)NC)c(Cl)c3)n2C)c(C(F)(F)F)n1 [Example 43, N-(3-chloro-4-(methylcarbamoyl)phenyl)-1-methyl-5-(1-(prop-2-yn-1-yl)-3-(trifluoromethyl)-1H-pyrazol-4-yl)-1H-imidazole-2-carboxamide]"
4,556 nM,"C#CCn1cc(-c2cnc(C(=O)Nc3ccc(C(=O)NCCCN)c(Cl)c3)n2C)c(C(F)(F)F)n1 [Example 44, N-(4-((3-aminopropyl)carbamoyl)-3-chlorophenyl)-1-methyl-5-(1-(prop-2-yn-1-yl)-3-(trifluoromethyl)-1H-pyrazol-4-yl)-1H-imidazole-2-carboxamide 2,2,2-trifluoroacetate]"
5,262 nM,"C#CCn1cc(-c2cnc(C(=O)Nc3ccc(C(=O)NCCOC[C@@H](C)N)c(Cl)c3)n2C)c(C(F)(F)F)n1 [Example 45, (R)-N-(4-((2-(2-aminopropoxy)ethyl)carbamoyl)-3-chlorophenyl)-1-methyl-5-(1-(prop-2-yn-1-yl)-3-(trifluoromethyl)-1H-pyrazol-4-yl)-1H-imidazole-2-carboxamide 2,2,2-trifluoroacetate]"
6,263 nM,"C#CCn1cc(-c2cnc(C(=O)Nc3ccc(C(=O)NCCOCC(C)(C)N)c(Cl)c3)n2C)c(C(F)(F)F)n1 [Example 46, N-(4-((2-(2-amino-2-methylpropoxy)ethyl)carbamoyl)-3-chlorophenyl)-1-methyl-5-(1-(prop-2-yn-1-yl)-3-(trifluoromethyl)-1H-pyrazol-4-yl)-1H-imidazole-2-carboxamide 2,2,2-trifluoroacetate]"
7,428 nM,"C#CCn1cc(-c2cnc(C(=O)Nc3ccc(C(=O)NCCOC[C@H](C)N)c(Cl)c3)n2C)c(C(F)(F)F)n1 [Example 47, (S)-N-(4-((2-(2-aminopropoxy)ethyl)carbamoyl)-3-chlorophenyl)-1-methyl-5-(1-(prop-2-yn-1-yl)-3-(trifluoromethyl)-1H-pyrazol-4-yl)-1H-imidazole-2-carboxamide 2,2,2-trifluoroacetate]"
8,231 nM,"C#CCn1cc(-c2cnc(C(=O)Nc3ccc(C(=O)NCCOCCN)c(Cl)c3)n2C)c(C(F)(F)F)n1 [Example 48, N-(4-((2-(2-aminoethoxy)ethyl)carbamoyl)-3-chlorophenyl)-1-methyl-5-(1-(prop-2-yn-1-yl)-3-(trifluoromethyl)-1H-pyrazol-4-yl)-1H-imidazole-2-carboxamide trifluoroacetate]"

# Same assay, conditions: Acinetobacter baumannii, ATCC17961, read-out: ATCC 17961 IC90, Acinetobacter baumannii ATCC 17961, Iso-Sensitest broth
row,Compound,IC90
1,"Cn1c(-c2c[nH]nc2C(F)(F)F)cnc1C(=O)Nc1ccc(C(=O)N2CCNCC2)c(Cl)c1 [Example 35, N-[3-chloro-4-(piperazine-1-carbonyl)phenyl]-1-methyl-5-[3-(trifluoromethyl)-1H-pyrazol-4-yl]imidazole-2-carboxamide hydrochloride]",3700 nM
